Data taken from PMC5192521, “Flavin-Dependent Redox Transfers by the Two-Component Diketocamphane Monooxygenases of Camphor-Grown Pseudomonas putida NCIMB 10007” (Microorganisms, 2016).

Columns and labels:
[1] = molecular target: T1, 2,5-DKCMO (2,5-diketocamphane monooxygenase; 25DKCMO); assay: tryptophan fluorescence quenching titration (ex […] nm, em […] nm); assay type: binding, Pseudomonas putida; conditions: anaerobic, 60 mM Tris/HCl pH 7.6, 10 µM enzyme; FNR made by photoreduction with EDTA
T1 construct: gene camE25-1; oxygenating subunit, native purification from camphor-grown cells; CAM plasmid-coded; homodimer; nine Trp per monomer

[2] = molecular target: T2, 3,6-DKCMO (3,6-diketocamphane monooxygenase; 36DKCMO) (Pseudomonas putida, UniProt D7UER1); assay: as above; assay type: binding
T2 construct: gene camE36; oxygenating subunit, native purification from camphor-grown cells; CAM plasmid-coded; homodimer; five Trp per monomer
T2 sequence (D7UER1 1-378): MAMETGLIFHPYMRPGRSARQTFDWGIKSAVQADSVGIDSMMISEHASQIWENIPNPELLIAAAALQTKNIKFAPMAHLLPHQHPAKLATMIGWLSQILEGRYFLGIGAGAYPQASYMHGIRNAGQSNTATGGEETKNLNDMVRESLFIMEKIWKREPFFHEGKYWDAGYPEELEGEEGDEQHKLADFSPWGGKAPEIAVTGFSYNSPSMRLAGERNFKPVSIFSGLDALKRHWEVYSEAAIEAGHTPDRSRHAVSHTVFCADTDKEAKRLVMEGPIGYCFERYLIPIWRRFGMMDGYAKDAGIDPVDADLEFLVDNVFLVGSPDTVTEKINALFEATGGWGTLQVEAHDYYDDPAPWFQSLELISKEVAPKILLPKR

[3] = test system: T3, Frp2 (28.5 kDa ferric reductase); assay: initial rate of A340 decrease, Lineweaver-Burk; assay type: biochemical, Pseudomonas putida; conditions: anaerobic, DCPIP as terminal acceptor
T3 construct: native purification from camphor-grown cells; chromosome-coded

[4] = test system: T4, Frp1 (27.0 kDa ferric reductase); assay: initial rate of A340 decrease, Lineweaver-Burk; assay type: biochemical, Pseudomonas putida; conditions: anaerobic, DCPIP as terminal acceptor
T4 construct: native purification from camphor-grown cells; chromosome-coded

[5] = molecular target: T2, 3,6-DKCMO (3,6-diketocamphane monooxygenase; 36DKCMO); assay: spectrophotometric titration at […] nm; assay type: binding
[6] = molecular target: T1, 2,5-DKCMO (2,5-diketocamphane monooxygenase; 25DKCMO); assay: spectrophotometric titration at […] nm; assay type: binding, Pseudomonas putida; conditions: aerobic, Tris-HCl pH 7.6, 10 µM FMN
[7] = substrate: NC(=O)C1=CN([C@@H]2O[C@H](COP(=O)(O)OP(=O)(O)OC[C@H]3O[C@@H](n4cnc5c(N)ncnc54)[C@H](O)[C@@H]3O)[C@@H](O)[C@H]2O)C=CC1; assay: initial rate of A340 decrease, Lineweaver-Burk; assay type: biochemical, Pseudomonas putida; conditions: anaerobic
[8] = substrate: Cc1cc2nc3c(=O)[nH]c(=O)nc-3n(C[C@H](O)[C@H](O)[C@H](O)COP(=O)(O)O)c2cc1C; assay: initial rate of A340 decrease, Lineweaver-Burk; assay type: biochemical, Pseudomonas putida; conditions: anaerobic, 60 mM Tris/HCl pH 7.6, NADH as donor, cytochrome c as terminal acceptor
[9] = 60 mM Tris/HCl pH 7.6, FMN as acceptor
[10] = 60 mM Tris/HCl pH 7.6, NADH as donor
[11] = 60 mM Tris/HCl pH 7.6, 10 µM putidaredoxin plus 30 µM cytochrome c as acceptor

## Cc1cc2c(cc1C)N(C[C@H](O)[C@H](O)[C@H](O)COP(=O)(O)O)c1[nH]c(=O)[nH]c(=O)c1N2 [FNR]
[1]
  Kd: 0.21 µM
[2]
  Kd: 0.24 µM

## NC(=O)C1=CN([C@@H]2O[C@H](COP(=O)(O)OP(=O)(O)OC[C@H]3O[C@@H](n4cnc5c(N)ncnc54)[C@H](OP(=O)(O)O)[C@@H]3O)[C@@H](O)[C@H]2O)C=CC1 [NADPH]
[3]; [9]
  Km: 92 µM

## Cc1cc2nc3c(=O)[nH]c(=O)nc-3n(C[C@H](O)[C@H](O)[C@H](O)COP(=O)(O)OP(=O)(O)OC[C@H]3O[C@@H](n4cnc5c(N)ncnc54)[C@H](O)[C@@H]3O)c2cc1C [FAD]
[4]; 60 mM Tris/HCl pH 7.6, NADH as donor, kcat as printed although text calls FAD activity much lower
  Km: 68.8 µM

## Cc1cc2nc3c(=O)[nH]c(=O)nc-3n(C[C@H](O)[C@H](O)[C@H](O)COP(=O)(O)O)c2cc1C [FMN]
[4]; [10]
  Km: 6.9 µM
[5]
  Kd: 125 µM
[3]; [10]
  Km: 8.6 µM
[6]
  Kd: 109 µM

## NC(=O)C1=CN([C@@H]2O[C@H](COP(=O)(O)OP(=O)(O)OC[C@H]3O[C@@H](n4cnc5c(N)ncnc54)[C@H](O)[C@@H]3O)[C@@H](O)[C@H]2O)C=CC1 [NADH]
[4]; [9]
  Km: 23 µM
[3]; [9]
  Km: 36 µM

B1: PdR (putidaredoxin reductase) (Pseudomonas putida) (protein)
chain: MNANDNVVIVGTGLAGVEVAFGLRASGWEGNIRLVGDATVIPHHLPPLSKAYLAGKATAESLYLRTPDAYAAQNIQLLGGTQVTAINRDRQQVILSDGRALDYDRLVLATGGRPRPLPVASGAVGKANNFRYLRTLEDAECIRRQLIADNRLVVIGGGYIGLEVAATAIKANMHVTLLDTAARVLERVTAPPVSAFYEHLHREAGVDIRTGTQVCGFEMSTDQQKVTAVLCEDGTRLPADLVIAGIGLIPNCELASAAGLQVDNGIVINEHMQTSDPLIMAVGDCARFHSQLYDRWVRIESVPNALEQARKIAAILCGKVPRDEAAPWFWSDQYEIGLKMVGLSEGYDRIIVRGSLAQPDFSVFYLQGDRVLAVDTVNRPVEFNQSKQIITDRLPVEPNLLGDESVPLKEIIAAAKAELSSA
notes: native purification from camphor-grown cells; FAD flavoprotein; CAM plasmid-coded
[7]; [11]
  Km: 5.9 µM
  kcat: 102 s⁻¹

B2: Fred (Pseudomonas putida) (protein)
chain: TKVAAEIVRSAIDPQWFRAVLGQYPTGVCAVTAMDPDGKMSGMAVGSFTSVSLNPPLVAFLPDRSSTSWPKIERAGKFCVNVLSDQQLGVCKRFASKDEDKFSGLVYRLSDNGSPIIEGVVAWIDCDLHSVQEAGDHYIVIGSVRELQVESEDSALLFYRGGYGGFAAI
notes: native purification from camphor-grown cells; chromosome-coded; 36 kDa homodimer
[7]; 60 mM Tris/HCl pH 7.6, FMN as acceptor, cytochrome c as terminal acceptor
  Km: 28 µM
[8]
  Km: 4.2 µM
  kcat: 294 s⁻¹
